System: 156681-154-R-J1-PDC complex spheroid viability
Test: Anticancer human tumor 156681-154-R-J1-PDC patient-derived melanoma cell line growth inhibition [CLK]
Conditions: for IC50: curve of first compound; for viability, T/C: stronger effect = lower value
How it was run: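 Multi-cell-type spheroids combined patient-derived tumor cells with HUVEC endothelial cells and human mesenchymal stem cells. Paired agents were dosed in half-log steps down from about clinical Cmax, or from 10 microM where Cmax was unknown.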

[1] = second compound 0.0316 µM, first compound 0.0316 µM
[2] = second compound 0.0316 µM, first compound 0.1 µM
[3] = second compound 0.0316 µM, first compound 0.316 µM
[4] = second compound 0.0316 µM, first compound 1 µM
[5] = second compound 0.0316 µM, first compound 3.16 µM
[6] = second compound 0.0316 µM, first compound 10 µM
[7] = second compound 0.1 µM, first compound 0.0316 µM
[8] = second compound 0.1 µM, first compound 0.1 µM
[9] = second compound 0.1 µM, first compound 0.316 µM
[10] = second compound 0.1 µM, first compound 1 µM
[11] = second compound 0.1 µM, first compound 3.16 µM
[12] = second compound 0.1 µM, first compound 10 µM
[13] = second compound 0.316 µM, first compound 0.0316 µM
[14] = second compound 0.316 µM, first compound 0.1 µM
[15] = second compound 0.316 µM, first compound 0.316 µM
[16] = second compound 0.316 µM, first compound 1 µM
[17] = second compound 0.316 µM, first compound 3.16 µM
[18] = second compound 0.316 µM, first compound 10 µM
[19] = second compound 1 µM, first compound 0.0316 µM
[20] = second compound 1 µM, first compound 0.1 µM
[21] = second compound 1 µM, first compound 0.316 µM
[22] = second compound 1 µM, first compound 1 µM
[23] = second compound 1 µM, first compound 3.16 µM
[24] = second compound 1 µM, first compound 10 µM
[25] = second compound 3.16 µM, first compound 0.0316 µM
[26] = second compound 3.16 µM, first compound 0.1 µM
[27] = second compound 3.16 µM, first compound 0.316 µM
[28] = second compound 3.16 µM, first compound 1 µM
[29] = second compound 3.16 µM, first compound 3.16 µM
[30] = second compound 3.16 µM, first compound 10 µM
[31] = second compound 10 µM, first compound 0.0316 µM
[32] = second compound 10 µM, first compound 0.1 µM
[33] = second compound 10 µM, first compound 0.316 µM
[34] = second compound 10 µM, first compound 1 µM
[35] = second compound 10 µM, first compound 3.16 µM
[36] = second compound 10 µM, first compound 10 µM
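Note: spheroids exposed to the agents for seven days.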
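Throughout, for viability, T/C: 100% = DMSO vehicle control viability.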

How did the IC50 (second compound 0.0316 µM) turn out when CC(CO)NC(=O)c1cc(-c2ccc(Cl)cc2)nn(-c2cnn(C)c2)c1=O (stereo unspecified) + CN1CCN(c2cc(C(=O)Nc3cc4cc(-c5cnn(C)c5)ccc4cn3)ccn2)CC1 was run?
Its IC50 is greater than 10000 nM.

What about the IC50 (second compound 0.1 µM) of the same molecule?
The IC50 was greater than 10000 nM.

What about the IC50 (second compound 0.316 µM) of the same molecule?
The IC50 was less than 31.6 nM.

What about the IC50 (second compound 1 µM) of the same molecule?
The IC50 was less than 31.6 nM.

And the IC50 (second compound 3.16 µM)?
Its IC50 is less than 31.6 nM.

What about the IC50 (second compound 10 µM) of the same molecule?
Its IC50 is less than 31.6 nM.

What about the viability, T/C [1] of the same molecule?
Its viability, T/C is 97.7%.

And the viability, T/C [2]?
The viability, T/C was 107%.

And the viability, T/C [3]?
The viability, T/C was 103%.

What about the viability, T/C [4] of the same molecule?
Its viability, T/C is 114%.

And the viability, T/C [5]?
The viability, T/C was 84.2%.

And the viability, T/C [6]?
The viability, T/C was 59.6%.

What about the viability, T/C [7] of the same molecule?
Its viability, T/C is 99.3%.

And the viability, T/C [8]?
Its viability, T/C is 94.7%.

What about the viability, T/C [9] of the same molecule?
The viability, T/C was 87.5%.

And the viability, T/C [10]?
The viability, T/C was 81.8%.

What about the viability, T/C [11] of the same molecule?
Its viability, T/C is 67%.

What about the viability, T/C [12] of the same molecule?
The viability, T/C was 56%.

And the viability, T/C [13]?
The viability, T/C was 26.8%.

What about the viability, T/C [14] of the same molecule?
The viability, T/C was 38.3%.

And the viability, T/C [15]?
Its viability, T/C is 34.2%.

And the viability, T/C [16]?
The viability, T/C was 29.2%.

And the viability, T/C [17]?
Its viability, T/C is 29.1%.

What about the viability, T/C [18] of the same molecule?
Its viability, T/C is 21.5%.

What about the viability, T/C [19] of the same molecule?
Its viability, T/C is 0.34%.

And the viability, T/C [20]?
The viability, T/C was 0.99%.

What about the viability, T/C [21] of the same molecule?
Its viability, T/C is 0.36%.

What about the viability, T/C [22] of the same molecule?
Its viability, T/C is 1.64%.

What about the viability, T/C [23] of the same molecule?
The viability, T/C was 1.51%.

What about the viability, T/C [24] of the same molecule?
The viability, T/C was 2.77%.

And the viability, T/C [25]?
The viability, T/C was 0.25%.

And the viability, T/C [26]?
Its viability, T/C is 0.92%.

What about the viability, T/C [27] of the same molecule?
Its viability, T/C is 0.29%.

What about the viability, T/C [28] of the same molecule?
The viability, T/C was 1.68%.

What about the viability, T/C [29] of the same molecule?
Its viability, T/C is 0.58%.

What about the viability, T/C [30] of the same molecule?
Its viability, T/C is 0.23%.

What about the viability, T/C [31] of the same molecule?
Its viability, T/C is 0.29%.

And the viability, T/C [32]?
Its viability, T/C is 0.66%.

What about the viability, T/C [33] of the same molecule?
The viability, T/C was 0.9%.

What about the viability, T/C [34] of the same molecule?
The viability, T/C was 1.31%.

And the viability, T/C [35]?
Its viability, T/C is 0.62%.

What about the viability, T/C [36] of the same molecule?
The viability, T/C was 1.4%.

Which results are given for CCCS(=O)(=O)Nc1ccc(F)c(C(=O)c2c[nH]c3ncc(-c4ccc(Cl)cc4)cc23)c1F + CN1CCN(c2cc(C(=O)Nc3cc4cc(-c5cnn(C)c5)ccc4cn3)ccn2)CC1?
IC50 (second compound 0.0316 µM): 6050 nM; IC50 (second compound 0.1 µM): 4960 nM; IC50 (second compound 0.316 µM): < 31.6 nM; IC50 (second compound 1 µM): < 31.6 nM; IC50 (second compound 3.16 µM): < 31.6 nM; IC50 (second compound 10 µM): < 31.6 nM; viability, T/C [1]: 95.2%; viability, T/C [2]: 88.7%; viability, T/C [3]: 104%; viability, T/C [4]: 94.7%; viability, T/C [5]: 99.7%; viability, T/C [6]: 13.9%; viability, T/C [7]: 88.3%; viability, T/C [8]: 80.8%; viability, T/C [9]: 76.7%; viability, T/C [10]: 85%; viability, T/C [11]: 74.8%; viability, T/C [12]: 11.3%; viability, T/C [13]: 25.4%; viability, T/C [14]: 19.6%; viability, T/C [15]: 28.6%; viability, T/C [16]: 29.9%; viability, T/C [17]: 24.9%; viability, T/C [18]: 3.74%; viability, T/C [19]: 0.19%; viability, T/C [20]: 0.44%; viability, T/C [21]: 0.19%; viability, T/C [22]: 0.14%; viability, T/C [23]: 0.12%; viability, T/C [24]: 0.13%; viability, T/C [25]: 0.3%; viability, T/C [26]: 0.48%; viability, T/C [27]: 0.11%; viability, T/C [28]: 0.27%; viability, T/C [29]: 3.96%; viability, T/C [30]: 0.11%; viability, T/C [31]: 0.13%; viability, T/C [32]: 1.59%; viability, T/C [33]: 0.27%; viability, T/C [34]: 0.21%; viability, T/C [35]: 3.86%; viability, T/C [36]: 0.17%

Which results are given for COc1ccc([C@@H](O)c2cc(-c3ncnc4cc(N5CCOCC5)ccc34)c(F)cc2Cl)nn1 + CNC(=O)c1ccc(Nc2nc(OC3CCCC3)c3c(-c4ccc5nc(C)oc5c4)c[nH]c3n2)c(OC)c1?
IC50 (second compound 0.0316 µM): 1910 nM; IC50 (second compound 0.1 µM): 1480 nM; IC50 (second compound 0.316 µM): 1100 nM; IC50 (second compound 1 µM): 116 nM; IC50 (second compound 3.16 µM): < 31.6 nM; IC50 (second compound 10 µM): < 31.6 nM; viability, T/C [1]: 80.7%; viability, T/C [2]: 97.2%; viability, T/C [3]: 87.8%; viability, T/C [4]: 69.8%; viability, T/C [5]: 34.6%; viability, T/C [6]: 29%; viability, T/C [7]: 44.7%; viability, T/C [8]: 64.6%; viability, T/C [9]: 52.2%; viability, T/C [10]: 56.8%; viability, T/C [11]: 41.2%; viability, T/C [12]: 21.3%; viability, T/C [13]: 59.5%; viability, T/C [14]: 62%; viability, T/C [15]: 50.9%; viability, T/C [16]: 52.9%; viability, T/C [17]: 28.4%; viability, T/C [18]: 20.7%; viability, T/C [19]: 50.8%; viability, T/C [20]: 55.6%; viability, T/C [21]: 47.7%; viability, T/C [22]: 29.2%; viability, T/C [23]: 32.8%; viability, T/C [24]: 9.5%; viability, T/C [25]: 46.8%; viability, T/C [26]: 47.6%; viability, T/C [27]: 37.1%; viability, T/C [28]: 33.7%; viability, T/C [29]: 29.7%; viability, T/C [30]: 5.99%; viability, T/C [31]: 39.3%; viability, T/C [32]: 30%; viability, T/C [33]: 29.9%; viability, T/C [34]: 28%; viability, T/C [35]: 18.9%; viability, T/C [36]: 2.83%

Reference: PubChem BioAssay AID2060627 (Molecular Pharmacology Branch, DTP, NCI, 2025)
